The species named for series [1] is Rattus norvegicus. The following applies: Wistar, Jejunum.
Description: Antagonist activity at muscarinic acetylcholine receptor in Wistar rat jejunum assessed as inhibition of acetylcholine-induced contraction preincubated for 2 mins followed by acetylcholine challenge
For series [2], the species on record is Rattus norvegicus. Kind of series: animal or person. The format is functional. As to conditions: Wistar, ip, route intraperitoneal.
Description: Anticataleptic activity in albino Wistar rat assessed as inhibition of perphenazine-induced catatonia at 2 mg/kg, ip preincubated for 15 mins followed by perphenazine challenge measured at 3 hrs relative to control
Series [3] is filed under the species Rattus norvegicus. The series can be described thus: animal or person. As to conditions: Wistar, ip, route intraperitoneal. The series is classed as functional. The source holds these as a separate data set.
Description: Anticataleptic activity in albino Wistar rat assessed as inhibition of perphenazine-induced catatonia at 2 mg/kg, ip preincubated for 15 mins followed by perphenazine challenge measured at 1 hr relative to control
Series [4] is filed under the species Rattus norvegicus. Kind of series: animal or person. The following applies: Wistar, ip, route intraperitoneal. The format is functional. The source holds these as a separate data set.
Description: Anticataleptic activity in albino Wistar rat assessed as inhibition of perphenazine-induced catatonia at 2 mg/kg, ip preincubated for 15 mins followed by perphenazine challenge measured at 2 hrs relative to control
For series [5], the species on record is Rattus norvegicus. Kind of series: animal or person. The series is classed as functional. The following applies: Wistar, ip, route intraperitoneal. The source holds these as a separate data set.
Description: Anticataleptic activity in albino Wistar rat assessed as inhibition of perphenazine-induced catatonia at 2 mg/kg, ip preincubated for 15 mins followed by perphenazine challenge measured at 0.5 hrs relative to control
A short description of series [6]: Octanol-phosphate buffer partition coefficient, Kp of the compound at pH 7.4. The series is classed as physicochemical.
The subject of series [7] is Oryctolagus cuniculus. Kind of series: Central dopaminergic activity in New Zealand rabbit assessed as change in colonic temperature at 5 mg/kg, iv measured every 15 mins for 2 hrs by thermistor probe attached telethermometric analysis. The series is classed as functional, organism-based. Details: dose 5 mg/kg.

Counter-ions that a name gives are not always drawn. Activity calls are given as the source filed them. The rule behind the calls is not given here.
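For pD'2 in this document: muscarinic receptor antagonism measured as block of acetylcholine-evoked contraction in isolated jejunum, tissue exposed to test compound for 2 min before the acetylcholine challenge.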

The compound `CC[N+](C)(CC)CCOCC(O)(c1ccccc1)c1ccccc1` had a pD'2 in series [1] of 6.92.

For the compound `C[N+]1(C)CCC(OCC(O)(c2ccccc2)c2ccccc2)CC1`, the pD'2 in series [1] was 7.26.

`C=CCN(C)CCOCC(O)(c1ccccc1)c1ccccc1` returned a pD'2 in series [1] of 4.09. Also, the inhibition in vivo at 2 mg/kg in series [2] is 0%; in series [3], 25%; in series [4] it was 17%; in series [5] it was 79%.

Take `C[N+]1(C)CCCC(OCC(O)(c2ccccc2)c2ccccc2)C1` (configuration not stated): the pD'2 in series [1] worked out at 5.68.

`CN1CCC(OCC(O)(c2ccccc2)c2ccccc2)C1` (configuration not stated) displayed a pD'2 in series [1] of 5.58. For the same compound, the inhibition in vivo at 2 mg/kg turned out to be 0% in series [2], 21% in series [3], 8% in series [4] and 50% in series [5].

Turning to `CC[N+]1(C)CCCC(OCC(O)(c2ccccc2)c2ccccc2)C1` (configuration not stated), the pD'2 in series [1] worked out at 5.

As to `CCN1CCCC(OCC(O)(c2ccccc2)c2ccccc2)C1` (configuration not stated), in series [1], the pD'2 came out at 4.95. Also, the inhibition in vivo at 2 mg/kg turned out to be 0% in series [2], 0% in series [3], 0% in series [4] and 12% in series [5].

As for `CCN(CC)CCOCC(O)(c1ccccc1)c1ccccc1` [listing 1 of 3 here], the inhibition in vivo at 2 mg/kg was determined as 0% in series [2], 0% in series [3], 0% in series [4] and 38% in series [5].

`CCN(CC)CCOCC(O)(c1ccccc1)c1ccccc1` [listing 2 of 3 here]: the Kp in series [6] stood at 5.6.

Take `C[N+]12CCC(CC1)C(OCC(O)(c1ccccc1)c1ccccc1)C2` (configuration not stated): in series [1], the pD'2 amounted to 6.18.

Turning to `C[N+](C)(C)CCOCC(O)(c1ccccc1)c1ccccc1`, the pD'2 in series [1] was 5.49.

As to `OC(COC1CN2CCC1CC2)(c1ccccc1)c1ccccc1` (configuration not stated), the pD'2 in series [1] is 6.58. For the same compound, the inhibition in vivo at 2 mg/kg in series [2] is 48%; in series [3], 85%; in series [4] it was 56%; in series [5], 96%. Further, the result in series [7] was inactive.

Regarding `CN1[C@@H]2CC[C@H]1C[C@H](OC(=O)C(CO)c1ccccc1)C2` (some centres not stated), the pD'2 in series [1] was determined as 7.3. The inhibition in vivo at 2 mg/kg in series [2] amounted to 27%; in series [3], 56%; in series [4], 30%; in series [5] it was 87%.

With `CN(C)CCCOCC(O)(c1ccccc1)c1ccccc1`, the pD'2 in series [1] is 5.02. Further, the inhibition in vivo at 2 mg/kg in series [2] worked out at 17%; in series [3], 71%; in series [4] it was 54%; in series [5], 100%.

Regarding `CN1CCC(OCC(O)(c2ccccc2)c2ccccc2)CC1` [listing 1 of 3 here], the inhibition in vivo at 2 mg/kg stood at 0% in series [2], 37% in series [3], 7% in series [4] and 80% in series [5].

`CCN(CC)CCOCC(O)(c1ccccc1)c1ccccc1` [listing 3 of 3 here] came in with a pD'2 in series [1] of 4.92. Moreover, the result in series [7] was inactive.

On to `CN1CCC(OCC(O)(c2ccccc2)c2ccccc2)CC1` [listing 2 of 3 here], for which, in series [1], the pD'2 is 6.24.

As for `CN(C)CCOCC(O)(c1ccccc1)c1ccccc1`, in series [1], the pD'2 was determined as 4.68. Further, the inhibition in vivo at 2 mg/kg in series [2] was determined as 8%; in series [3], 21%; in series [4], 21%; in series [5] it was 75%.

In the case of `CN1[C@@H]2C[C@@H](OC(=O)[C@H](CO)c3ccccc3)C[C@H]1[C@@H]1O[C@@H]12` [SCOPOLAMINE HYDROBROMIDE], the pD'2 in series [1] turned out to be 5.31. In addition, the inhibition in vivo at 2 mg/kg in series [2] was determined as 71%; in series [3], 96%; in series [4], 83%; in series [5], 96%.

Consider `CCN(CC)CCOC(=O)C(O)(c1ccccc1)c1ccccc1.Cl`, for which the Kp in series [6] amounted to 0.26. In series [7], the result was inactive.

In series [1], `CN1CCCC(OCC(O)(c2ccccc2)c2ccccc2)C1` (configuration not stated) returned a pD'2 of 4.9. Moreover, the inhibition in vivo at 2 mg/kg was found to be 17% in series [2], 67% in series [3], 54% in series [4] and 92% in series [5].

Turning to `C=CCN(CC)CCOCC(O)(c1ccccc1)c1ccccc1`, the pD'2 in series [1] was determined as 5.13. Moreover, the inhibition in vivo at 2 mg/kg turned out to be 0% in series [2], 0% in series [3], 0% in series [4] and 8% in series [5].

For the compound `CN1CCC(OCC(O)(c2ccccc2)c2ccccc2)CC1` [listing 3 of 3 here], the Kp in series [6] came to 3.1.

The record behind these values is ChEMBL document CHEMBL3272079, “Synthesis and preliminary pharmacological activity of aminoalkoxy isosteres of glycolate ester anticholinergics” (J Med Chem, 1977).
